Read-outs that look alike come from different tables or passages of the source.
Tests used:
[1] = molecular target: recombinant human 5-HT3A receptors (Homo sapiens (Human), UniProt P46098); experiment: agonist activity (Ca2+ fluorescence, Fluo-4) in HEK293 cells expressing the h5-HT3A receptor subunit; type: cell-based; settings: for activation at 10 µM: HEK293, read-out: HEK293 h5-HT3A % agonist response
Method: Human embryonic kidney (HEK293) cells expressing the h5-HT3A receptor subunit were seeded directly into poly-D-lysine coated, black-walled, clear bottomed, 96 well plates with approximately 1×10^5 cells per well. After 48 hrs incubation in DMEM growth media (100 μL), cells were washed twice (each 200 μL) in Hank's balanced salt solution (Invitrogen) before incubation (1 hr) with Fluo-4 acetoxymethyl (AM) ester (100 μL, 2.5 μM; Molecular Probes). Cells were washed twice (each 200 μL) in Hank's balanced salt solution and incubated for a further 30 mins in Hank's balanced salt solution (100 μL) prior to assay (25° C.). Alteration in [Ca^2+], was measured (relative fluorescence units [RFU]) using a Flexstation (excitation 488 nm and emission 515 nm; frequency of recording 3 sec). After recording for at least 80 sec, vehicle (Hank's balanced salt solution) or drug was automatically administered to the well (50 μL). Baseline was calculated from the 5 data points immediately prior to the first drug administration and the maximum response was that achieved over the 240 sec following drug administration. In all experiments the muscarinic receptor agonist carbachol (1 mM) was added 240 sec after the test drug administration.

human 5-HT3 receptor = human 5-HT3 receptor (Homo sapiens (Human), UniProt P46098); experiment: radioligand binding assay (SPA format), [9-methyl-3H]BRL-43694 displacement
human 5-HT3 receptor, sequence (P46098 24-478): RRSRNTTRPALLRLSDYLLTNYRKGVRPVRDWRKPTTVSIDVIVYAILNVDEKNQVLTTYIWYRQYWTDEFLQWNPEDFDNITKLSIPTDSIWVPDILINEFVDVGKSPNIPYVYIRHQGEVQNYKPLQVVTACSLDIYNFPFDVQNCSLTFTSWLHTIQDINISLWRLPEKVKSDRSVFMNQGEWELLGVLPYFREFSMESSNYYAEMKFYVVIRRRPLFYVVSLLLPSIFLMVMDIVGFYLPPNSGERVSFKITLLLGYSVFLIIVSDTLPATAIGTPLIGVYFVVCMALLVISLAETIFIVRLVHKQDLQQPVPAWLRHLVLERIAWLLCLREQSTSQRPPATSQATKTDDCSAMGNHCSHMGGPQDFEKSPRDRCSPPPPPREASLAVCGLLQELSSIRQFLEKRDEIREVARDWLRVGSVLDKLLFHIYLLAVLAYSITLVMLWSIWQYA
Method: The relative affinity of the various compounds for the human 5-HT3 receptor was measured in a radioligand binding assay, using a scintillation proximity assay (SPA) format. Test compounds were dissolved to 10 mM in 100% DMSO, then serially diluted at 10× assay concentrations in 100% DMSO in 96-well polypropylene plates and further diluted to 4× assay concentrations with the assay buffer. […] Binding reactions were set up in wells of PicoPlates-96 (Perkin Elmer, Waltham, Mass.) by adding consecutively 50 μL, of each competing compound or buffer, SPA beads, the radioligand and 5-HT3 receptor membranes. After an overnight incubation at room temperature on a Nutator mixer, plates were centrifuged for 15 min at 1,500 rpm, followed by incubation in the dark for 30 min. Radioactivity was counted in the TopCount microplate counter (Perkin Elmer) for 5 min. […] Specific binding was determined by subtracting nonspecific binding from total binding. All experiments were performed in duplicate using ten concentrations of competing ligand, with ondansetron included as a control in every run. IC50 values were determined from specific binding data using XLfit4.1 curve fitting software from IDBS Ltd. The inhibition constant (Ki) was calculated from the Cheng Prusoff equation: (Ki=IC50/(1+(L/KD)), where L=concentration of radioligand in the assay, and KD=affinity of the radioligand for the receptor.

5-HT3 receptors = 5-HT3 receptors (Mus musculus (Mouse), UniProt P23979); experiment: von Bezold-Jarisch model in vivo: inhibition of 5-HT induced bradycardia; settings: 60 min before 5-HT 0.1 mg/kg IV, highest oral dose tested
5-HT3 receptors, sequence (P23979 24-489): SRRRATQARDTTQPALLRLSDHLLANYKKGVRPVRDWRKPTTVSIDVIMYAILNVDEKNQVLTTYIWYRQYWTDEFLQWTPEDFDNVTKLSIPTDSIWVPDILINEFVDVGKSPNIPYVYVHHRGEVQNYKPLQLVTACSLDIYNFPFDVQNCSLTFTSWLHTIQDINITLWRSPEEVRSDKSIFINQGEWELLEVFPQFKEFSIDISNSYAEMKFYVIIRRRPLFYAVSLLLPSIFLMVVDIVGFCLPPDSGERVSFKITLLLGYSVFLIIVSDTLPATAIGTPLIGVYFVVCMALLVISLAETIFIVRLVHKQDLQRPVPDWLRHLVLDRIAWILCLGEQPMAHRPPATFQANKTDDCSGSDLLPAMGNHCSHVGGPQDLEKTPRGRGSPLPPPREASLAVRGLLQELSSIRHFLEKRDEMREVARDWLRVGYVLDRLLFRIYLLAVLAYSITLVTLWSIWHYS
Method: This is a well characterized and widely used model to assess 5-HT3 receptor function in vivo (King et al., 5-Hydroxtryptamine-3 Receptor Antagonists, CRC Press, pp. 74-75 (1993), which is hereby incorporated by reference in its entirety). Certain compounds (Table 1) were evaluated for their ability to inhibit serotonin induced bradycardia in vivo in the mouse (Saxena et al., Arch. Int. Pharmacodyn., 277:235-252 (1985), which is hereby incorporated by reference in its entirety). Test substances and vehicle [2% Tween 80] were each administered orally to a group of 5 male CD-1(Crl.) mice each weighing 24±2 g. A dosing volume of 10 mL/kg was used. Sixty minutes later, 5-HT (0.1 mg/kg IV)-induced bradycardia was recorded in urethane (2250 mg/kg IP, given 10 minutes before 5-HT)-anesthetized animals.

[2] = human 5-HT3 receptor membranes, 10 nM [3H]BRL-43694, Ki from Cheng Prusoff equation, read-out: h5-HT3A Ki

recombinant human 5-HT3A receptors, sequence (P46098 24-478): as the sequence (P46098 24-478) above

Compound | activation at 10 µM [1] [%] | Ki (human 5-HT3 receptor) [nM] | Ki (human 5-HT3 receptor; [2]) [nM] | also measured
Cn1nc2c3c(cc(F)cc31)C(=O)N([C@H]1CN3CCC1CC3)C2 [Example 13] | 6 | – | – | –
O=C1c2cccc3c2c(nn3Cc2ccccc2)CN1[C@H]1CN2CCC1CC2 [Example 17] | – | 5 | – | –
COc1ccc(-n2nc3c4c(cccc42)C(=O)N([C@H]2CN4CCC2CC4)C3)cc1 [Example 20] | – | 57 | – | –
O=C1c2cccc3c2c(cn3Cc2ccccc2)CCN1[C@H]1CN2CCC1CC2 [Example 35, (R)-6-benzyl-2-(quinuclidin-3-yl)-2,3,4,6-tetrahydro-1H-azepino[5,4,3-cd]indol-1-one] | – | – | 13 | –
CCn1nc2c3c(cccc31)C(=O)N([C@H]1CN3CCC1CC3)C2 [Example 14, (R)-2-Ethyl-7-(quinuclidin-3-yl)-7,8-dihydropyrazolo[3,4,5-de]isoquinolin-6(2H)-one] | 4 | – | – | –
Cn1cc2c3c(cccc31)C(=O)N([C@@H]1CN3CCC1CC3)CC2 [Example 31, (S)-6-methyl-2-(quinuclidin-3-yl)-2,3,4,6-tetrahydro-1H-azepino[5,4,3-cd]indol-1-one] | 5 | – | 1 | –
O=C1c2cccc3c2c(cn3-c2ccc(F)cc2)CCN1[C@H]1CN2CCC1CC2 [Example 36, (R)-6-(4-fluorophenyl)-2-(quinuclidin-3-yl)-2,3,4,6-tetrahydro-1H-azepino[5,4,3-cd]indol-1-one] | – | – | – | inhibition at 10 µM (human 5-HT3 receptor; 10 μM, read-out: h5-HT3A inhibition @ 10 μM): 49%
CC(C)n1nc2c3c(cccc31)C(=O)N([C@H]1CN3CCC1CC3)C2 [Example 15, (R)-2-Isopropyl-7-(quinuclidin-3-yl)-7,8-dihydropyrazolo[3,4,5-de]isoquinolin-6(2H)-one] | 3 | – | – | –
CC(C)Cn1nc2c3c(cccc31)C(=O)N([C@@H]1CN3CCC1CC3)C2 [Example 9] | – | 2 | – | –
Cn1cc2c3c(cccc31)C(=O)N([C@@H]1CN3CCC1CC3)C2 [Example 4, (S)-5-Methyl-2-(quinuclidin-8-yl)-2,3-dihydropyrrolo[4,3,2-de]isoquinolin-1(5H)-one] | – | – | 1 | –
CN1C2CCCC1CC(N1CCc3cn(C)c4cccc(c34)C1=O)C2 (stereo not drawn) [Example 37, Endo-6-methyl-2-(9-methyl-9-azabicyclo[3.3.1]nonan-3-yl)-2,3,4,6-tetrahydro-1H-azepino[5,4,3-cd]indol-1-one] | – | – | 267 | –
O=C1c2cc(Br)cc3[nH]nc(c23)CN1[C@H]1CN2CCC1CC2 [Example 21] | – | 1 | – | –
Cn1cc2c3c(cccc31)C(=O)N([C@H]1CN3CCC1CC3)CC2 [Example 34, (R)-6-methyl-2-(quinuclidin-3-yl)-2,3,4,6-tetrahydro-1H-azepino[5,4,3-cd]indol-1-one] | 13 | – | 8 | Inhibition of 5-HT Induced Bradycardia in Mice (5-HT3 receptors; 3 mg/kg oral): 88% @ 3 mg/kg
Cn1cc(C(=O)[C@@H]2CCc3nc[nH]c3C2)c2ccccc21 [Ramosetron, reference compound] | – | – | 0.06 | Inhibition of 5-HT Induced Bradycardia in Mice (5-HT3 receptors; 0.1 mg/kg oral): 77% @ 0.1 mg/kg
CCn1nc2c3c(cccc31)C(=O)N([C@@H]1CN3CCC1CC3)C2 [Example 8, (S)-2-ethyl-7-(quinuclidin-3-yl)-7,8-dihydropyrazolo[3,4,5-de]isoquinolin-6(2H)-one] | – | 1 | – | –
O=C1c2cccc3[nH]cc(c23)CCN1[C@@H]1CN2CCC1CC2 [Example 29, (S)-2-(Quinuclidin-3-yl)-2,3,4,6-tetrahydro-1H-azepino[5,4,3-cd]indol-1-one] | – | – | 3 | HEK293 h5-HT3A % agonist response ([1]; at 10 μM, normalized to the response of 5-HT (100% at 3 μM), NR = no response): 17%; Inhibition of 5-HT Induced Bradycardia in Mice (5-HT3 receptors; 1 mg/kg oral): 94% @ 1 mg/kg
Cc1[nH]cnc1CN1CCc2c(c3ccccc3n2C)C1=O [Alosetron, reference compound] | – | – | – | Inhibition of 5-HT Induced Bradycardia in Mice (5-HT3 receptors; 1 mg/kg oral): 95% @ 1 mg/kg
Cn1nc2c3c(cccc31)C(=O)N([C@H]1CN3CCC1CC3)C2 [Example 12, (R)-2-Methyl-7-(quinuclidin-3-yl)-7,8-dihydropyrazolo[3,4,5-de]isoquinolin-6(2H)-one] | 6 | 2 | – | –
O=C1c2cccc3c2c(nn3-c2ccc(Cl)cc2)CN1[C@H]1CN2CCC1CC2 [Example 19] | – | 68 | – | –
Cn1nc2c3c(cccc31)C(=O)N([C@@H]1CN3CCC1CC3)C2 [Example 6, (S)-2-Methyl-7-(quinuclidin-3-yl)-7,8-dihydropyrazolo[3,4,5-de]isoquinolin-6(2H)-one] | – | 1 | – | –
O=C1c2cccc3[nH]nc(c23)CN1[C@H]1CN2CCC1CC2 [Example 16, (R)-7-(Quinuclidin-3-yl)-7,8-dihydropyrazolo[3,4,5-de]isoquinolin-6(2H)-one] | 35 | – | – | –
O=C1c2cccc3c2c(cn3Cc2ccccc2)CCN1[C@@H]1CN2CCC1CC2 [Example 32, (S)-6-benzyl-2-(quinuclidin-3-yl)-2,3,4,6-tetrahydro-1H-azepino[5,4,3-cd]indol-1-one] | – | – | 1 | –
CN1C2CCC1CC(N1Cc3nn(C)c4cccc(c34)C1=O)C2 (stereo not drawn) [Example 38, Endo-2-methyl-7-(8-methyl-8-azabicyclo[3.2.1]octan-3-yl)-7,8-dihydropyrazolo[3,4,5-de]isoquinolin-6(2H)-one] | – | 59 | – | –
O=C1c2cccc3[nH]cc(c23)CCN1[C@H]1CN2CCC1CC2 [Example 33, (R)-2-(Quinuclidin-3-yl)-2,3,4,6-tetrahydro-1H-azepino[5,4,3-cd]indol-1-one] | 14 | – | 49 | –
CN1C2CCCC1CC(N1Cc3nn(C)c4cccc(c34)C1=O)C2 (stereo not drawn) [Example 22, 7-(Endo-N-(9-methyl-9-azabicyclo[3.3.1]nonan-3-yl))-2-methyl-7,8-dihydropyrazolo[3,4,5-de]isoquinolin-6(2H)-one] | – | 34 | – | –
CN1CC2CCCC1CC(N1Cc3cn(C)c4cccc(c34)C1=O)C2 (stereo not drawn) [Example 5, Endo-5-methyl-2-(9-methyl-9-azabicyclo[3.3.1]nonan-3-yl)-2,3-dihydropyrrolo[4,3,2-de]isoquinolin-1(5H)-one] | – | – | 13 | –
